The values below come from patent US9074014B2 (Ipsen Pharma S.A.S., priority 2008, dated 2015).

Series [1] is described as follows: Rat plasma half-life assay. Format: in vitro ADME. On the set-up: half-life: dose or concentration left out as unconfirmed. The conditions noted are these: for half-life at 0.1 mg/ml: read-out: Rat Plasma T½ (converted).
A short description of series [2]: Human plasma half-life assay. It is filed as in vitro ADME.
Setting [3] is: human plasma, 37° C., LC-MS, read-out: Human Plasma T½ (converted).

*1 amine or outer side, *2 acyl side, *3 side chain or, on linkers, in order; H or OH if unused. Where a SMILES comes first, the peptide text is derived from it. Where no end group is shown, it is not given here. [ ]: non-standard residue; d: D form. The star is where a group is joined. Desaminotyrosyl = O=C(CCc1ccc(O)cc1)*; X2 = O=C([C@@H]1CC(O)CN1[*:1])[*:2]; Myristoyl = CCCCCCCCCCCCCC(=O)*; Tic = O=C(O)[C@@H]1Cc2ccccc2CN1; Ac6c = NC1(C(=O)O)CCCCC1; Nle = CCCC[C@H](N)C(=O)O; Orn = NCCC[C@H](N)C(=O)O; Ac5c = NC1(C(=O)O)CCCC1; Aib = CC(C)(N)C(=O)O Some results are limits rather than exact numbers.

Take `CCCC[C@H](NC(=O)[C@H](C)NC(=O)[C@@H](NC(=O)[C@H](CO)NC(=O)[C@H](Cc1ccc(O)cc1)NC(=O)[C@H](CC(=O)O)NC(=O)[C@H](CO)NC(=O)C1(NC(=O)[C@H](Cc2ccccc2)NC(=O)[C@@H](NC(=O)CNC(=O)[C@H](CCC(=O)O)NC(=O)C(C)(C)NC(=O)[C@@H](N)Cc2ccc(O)cc2)[C@@H](C)O)CCCC1)[C@@H](C)CC)C(=O)N[C@@H](CC(=O)O)C(=O)N[C@@H](CCCCN)C(=O)N[C@H](C(=O)N[C@@H](Cc1c[nH]cn1)C(=O)N[C@@H](CCC(N)=O)C(=O)N[C@@H](CCC(N)=O)C(=O)N[C@@H](CC(=O)O)C(=O)N[C@@H](Cc1ccccc1)C(=O)N[C@H](C(=O)N[C@@H](CC(N)=O)C(=O)N[C@@H](Cc1c[nH]c2ccccc12)C(=O)N[C@@H](CC(C)C)C(=O)N[C@@H](CC(C)C)C(=O)N[C@@H](C)C(=O)N[C@@H](CCC(N)=O)C(=O)N[C@@H](CCCCN)C(N)=O)C(C)C)[C@@H](C)CC` [Example 32, (Aib^2, A5c^7, Nle^14)hGIP(1-30)-NH2] (H-Y[Aib]EGTF[Ac5c]SDYSIA[Nle]DKIHQQDFVNWLLAQK-NH2; N-terminus assumed): the half-life at 0.1 mg/ml in series [1] (rat plasma, 37° C., LC-MS) is 28.3 h; in series [2] (setting [3]) it was above 48 h.
Take “Y[Aib]EGTF[Ac5c]SDYSIA[Ac5c]DKIHQQDFVNWLLAQKGKKNDWKHNITQ-OH [Example 59, (Aib^2, A5c^7, 14)hGIP(1-42)-OH]”: the half-life at 0.1 mg/ml in series [1] (rat plasma, 37° C., LC-MS) is 13.1 h; in series [2] (setting [3]) it was 24 h.
Turning to “Desaminotyrosyl-AEGTFISDYSI[Aib]MDKIHQQDFVNWLLAQKGKKNDWKHNITQ-OH [Example 101, (4Hppa^1, Aib^13)hGIP(1-42)-OH]”, the half-life at 0.1 mg/ml in series [1] (rat plasma, 37° C., LC-MS) is 13.4 h; in series [2] (setting [3]) it was 47.5 h.
On to “Y[Aib]EGTF[Ac6c]SDYSIA[Nle]DKIHQQDFVNWLLAQKGKKNDWKHNI[Aib]Q-OH [Example 25, (Aib^2, 41, A6c^7, Nle^14)hGIP(1-42)-OH]”, for which the half-life at 0.1 mg/ml is 8.4 h in series [1] (rat plasma, 37° C., LC-MS) and above 48 h in series [2] (setting [3]).
Regarding `CC[C@H](C)[C@H](NC(=O)[C@H](CO)NC(=O)[C@H](Cc1ccc(O)cc1)NC(=O)[C@H](CC(=O)O)NC(=O)[C@H](CO)NC(=O)[C@@H](NC(=O)[C@H](Cc1ccccc1)NC(=O)[C@@H](NC(=O)CNC(=O)[C@@H]1CCCCN1C(=O)[C@H](C)NC(=O)[C@@H](N)Cc1ccc(O)cc1)[C@@H](C)O)[C@@H](C)CC)C(=O)N[C@@H](C)C(=O)NC1(C(=O)N[C@@H](CC(=O)O)C(=O)N[C@@H](CCCCN)C(=O)N[C@H](C(=O)N[C@@H](Cc2c[nH]cn2)C(=O)N[C@@H](CCC(N)=O)C(=O)N[C@@H](CCC(N)=O)C(=O)N[C@@H](CC(=O)O)C(=O)N[C@@H](Cc2ccccc2)C(=O)N[C@H](C(=O)N[C@@H](CC(N)=O)C(=O)N[C@@H](Cc2c[nH]c3ccccc23)C(=O)N[C@@H](CC(C)C)C(=O)N[C@@H](CC(C)C)C(=O)N[C@@H](C)C(=O)N[C@@H](CCC(N)=O)C(=O)N[C@@H](CCCCN)C(=O)NCC(=O)N[C@@H](CCCCN)C(=O)N[C@@H](CCCCN)C(=O)N[C@@H](CC(N)=O)C(=O)N[C@@H](CC(=O)O)C(=O)N[C@@H](Cc2c[nH]c3ccccc23)C(=O)N[C@@H](CCCCN)C(=O)N[C@@H](Cc2c[nH]cn2)C(=O)N[C@@H](CC(N)=O)C(=O)N[C@H](C(=O)N[C@H](C(=O)N[C@@H](CCC(N)=O)C(=O)O)[C@@H](C)O)[C@@H](C)CC)C(C)C)[C@@H](C)CC)CCCCC1` [Example 72, (hPro^3, A6c^14)hGIP(1-42)-OH], the half-life at 0.1 mg/ml in series [1] (rat plasma, 37° C., LC-MS) is 0.45 h; in series [2] (setting [3]), 10.7 h.
Take `CC[C@H](C)[C@H](NC(=O)[C@H](CCCCN)NC(=O)[C@H](CC(=O)O)NC(=O)C1(NC(=O)[C@H](C)NC(=O)[C@@H](NC(=O)C2(NC(=O)[C@H](Cc3ccc(O)cc3)NC(=O)[C@H](CC(=O)O)NC(=O)[C@H](CO)NC(=O)[C@@H](NC(=O)[C@H](Cc3ccccc3)NC(=O)[C@@H](NC(=O)CNC(=O)[C@H](CCC(=O)O)NC(=O)C(C)(C)NC(=O)[C@@H](N)Cc3ccc(O)cc3)[C@@H](C)O)[C@@H](C)CC)CCCC2)[C@@H](C)CC)CCCCC1)C(=O)N[C@@H](Cc1c[nH]cn1)C(=O)N[C@@H](CCC(N)=O)C(=O)N[C@@H](CCC(N)=O)C(=O)N[C@@H](CC(=O)O)C(=O)N[C@@H](Cc1ccccc1)C(=O)N[C@H](C(=O)N[C@@H](CC(N)=O)C(=O)N[C@@H](Cc1c[nH]c2ccccc12)C(=O)N[C@@H](CC(C)C)C(=O)N[C@@H](CC(C)C)C(=O)N[C@@H](C)C(=O)N[C@@H](CCC(N)=O)C(=O)N[C@@H](CCCCN)C(N)=O)C(C)C` [Example 48, (Aib^2, A5c^11, A6c^14)hGIP(1-30)-NH2]: the half-life at 0.1 mg/ml is above 54 h in series [1] (rat plasma, 37° C., LC-MS) and above 56 h in series [2] (setting [3]).
Take “Y[Aib]EGTF[Ac6c]SDYSIA[Nle]DKIHQQDFVNWLLAQKGKKNDWKHNI[Ac6c]Q-OH [Example 29, (Aib^2, A6c^7, 41, Nle^14)hGIP(1-42)-OH]”: the half-life at 0.1 mg/ml in series [1] (rat plasma, 37° C., LC-MS) is 7.3 h; in series [2] (setting [3]), above 48 h.
On to “Y[Aib]EGTF[Ac5c]SDYSIA[Nle]DKIHQQDFVNWLLAQKGKKNDWKHNITQ-OH [Example 58, (Aib^2, A5c^7, Nle^14)hGIP(1-42)-OH]”, for which the half-life at 0.1 mg/ml was 16.7 h in series [1] (rat plasma, 37° C., LC-MS) and 37.6 h in series [2] (setting [3]).
As to “H-YAPGTFISDYSIAMDKIHQQDFVNWLLAQKGKKNDWKHNITQ-OH [[Pro^3]hGIP(1-42)-OH, reference compound]”, in series [1] (rat, plasma, same experimental conditions as Table 2, read-out: rat plasma half-life (converted)), the half-life was 0.8 h. Besides, the half-life at 0.1 mg/ml in series [2] (human, plasma, same experimental conditions as Table 2, read-out: human plasma half-life (converted)) was 10.8 h.
As to “H-YA[X2]GTFISDYSIA[Ac6c]DKIHQQDFVNWLLAQKGKKNDWKHNITQ-OH [Example 84, (4Hyp^3, A6c^14)hGIP(1-42)-OH]”, the half-life at 0.1 mg/ml in series [1] (rat plasma, 37° C., LC-MS) was 1.9 h; in series [2] (setting [3]) it was 3.3 h.
As to “YAPGTFISDY[Ac5c]IA[Ac6c]DKIHQQDFVNWLLAQKGKKNDWKHNITQ-OH [Example 102, (Pro^3, A5c^11, A6c^14)hGIP(1-42)-OH]”, the half-life at 0.1 mg/ml in series [1] (rat plasma, 37° C., LC-MS) is 1.7 h; in series [2] (setting [3]), 54.1 h.
As for “[Orn](Myristoyl)AEGTF[Ac6c]SDYSIAMDKIHQQDFVNWLLAQKGKKNDWKHNITQ-OH [Example 103, [Orn^1(N—C(O)—(CH2)12—CH3), A6c^7]hGIP(1-42)-OH]”, the half-life in series [1] (rat plasma, 37° C., LC-MS, read-out: Rat Plasma T½) was above 72 h; in series [2] (setting [3]), 6.8 h.
Regarding `CC[C@H](C)[C@H](NC(=O)[C@H](CO)NC(=O)[C@H](Cc1ccc(O)cc1)NC(=O)[C@H](CC(=O)O)NC(=O)[C@H](CO)NC(=O)[C@@H](NC(=O)[C@H](Cc1ccccc1)NC(=O)C(C)(C)NC(=O)CNC(=O)[C@H](CCC(=O)O)NC(=O)C(C)(C)NC(=O)[C@@H](N)Cc1ccc(O)cc1)[C@@H](C)CC)C(=O)N[C@@H](C)C(=O)N[C@@H](CCSC)C(=O)N[C@@H](CC(=O)O)C(=O)N[C@@H](CCCCN)C(=O)N[C@H](C(=O)N[C@@H](Cc1c[nH]cn1)C(=O)N[C@@H](CCC(N)=O)C(=O)N[C@@H](CCC(N)=O)C(=O)N[C@@H](CC(=O)O)C(=O)N[C@@H](Cc1ccccc1)C(=O)N[C@H](C(=O)N[C@@H](CC(N)=O)C(=O)N[C@@H](Cc1c[nH]c2ccccc12)C(=O)N[C@@H](CC(C)C)C(=O)N[C@@H](CC(C)C)C(=O)N[C@@H](C)C(=O)N[C@@H](CCC(N)=O)C(=O)N[C@@H](CCCCN)C(N)=O)C(C)C)[C@@H](C)CC` [Example 15, (Aib^2, 5)hGIP(1-30)-NH2], the half-life at 0.1 mg/ml in series [1] (rat plasma, 37° C., LC-MS) is 46.5 h; in series [2] (setting [3]), 28.6 h.
Regarding `CC[C@H](C)[C@H](NC(=O)[C@H](CCCCN)NC(=O)[C@H](CC(=O)O)NC(=O)[C@H](CCSC)NC(=O)[C@H](C)NC(=O)[C@@H](NC(=O)C1(NC(=O)[C@H](Cc2ccc(O)cc2)NC(=O)[C@H](CC(=O)O)NC(=O)[C@H](CO)NC(=O)[C@@H](NC(=O)[C@H](Cc2ccccc2)NC(=O)[C@@H](NC(=O)CNC(=O)[C@@H]2CCCCN2C(=O)[C@H](C)NC(=O)[C@@H](N)Cc2ccc(O)cc2)[C@@H](C)O)[C@@H](C)CC)CCCC1)[C@@H](C)CC)C(=O)N[C@@H](Cc1c[nH]cn1)C(=O)N[C@@H](CCC(N)=O)C(=O)N[C@@H](CCC(N)=O)C(=O)N[C@@H](CC(=O)O)C(=O)N[C@@H](Cc1ccccc1)C(=O)N[C@H](C(=O)N[C@@H](CC(N)=O)C(=O)N[C@@H](Cc1c[nH]c2ccccc12)C(=O)N[C@@H](CC(C)C)C(=O)N[C@@H](CC(C)C)C(=O)N[C@@H](C)C(=O)N[C@@H](CCC(N)=O)C(=O)N[C@@H](CCCCN)C(=O)NCC(=O)N[C@@H](CCCCN)C(=O)N[C@@H](CCCCN)C(=O)N[C@@H](CC(N)=O)C(=O)N[C@@H](CC(=O)O)C(=O)N[C@@H](Cc1c[nH]c2ccccc12)C(=O)N[C@@H](CCCCN)C(=O)N[C@@H](Cc1c[nH]cn1)C(=O)N[C@@H](CC(N)=O)C(=O)N[C@H](C(=O)N[C@H](C(=O)N[C@@H](CCC(N)=O)C(=O)O)[C@@H](C)O)[C@@H](C)CC)C(C)C` [Example 74, (hPro^3, A5c^11)hGIP(1-42)-OH], the half-life at 0.1 mg/ml in series [1] (rat plasma, 37° C., LC-MS) is 1.3 h; in series [2] (setting [3]), 16.3 h.
On the same counts, the results for `CC[C@H](C)[C@H](NC(=O)[C@H](CO)NC(=O)[C@H](Cc1ccc(O)cc1)NC(=O)[C@H](CC(=O)O)NC(=O)[C@H](CO)NC(=O)C1(NC(=O)[C@H](Cc2ccccc2)NC(=O)[C@@H](NC(=O)CNC(=O)[C@@H]2CCCN2C(=O)C(C)(C)NC(=O)[C@@H](N)Cc2ccc(O)cc2)[C@@H](C)O)CCCCC1)C(=O)N[C@@H](C)C(=O)N[C@@H](CCSC)C(=O)N[C@@H](CC(=O)O)C(=O)N[C@@H](CCCCN)C(=O)N[C@H](C(=O)N[C@@H](Cc1c[nH]cn1)C(=O)N[C@@H](CCC(N)=O)C(=O)N[C@@H](CCC(N)=O)C(=O)N[C@@H](CC(=O)O)C(=O)N[C@@H](Cc1ccccc1)C(=O)N[C@H](C(=O)N[C@@H](CC(N)=O)C(=O)N[C@@H](Cc1c[nH]c2ccccc12)C(=O)N[C@@H](CC(C)C)C(=O)N[C@@H](CC(C)C)C(=O)N[C@@H](C)C(=O)N[C@@H](CCC(N)=O)C(=O)N[C@@H](CCCCN)C(N)=O)C(C)C)[C@@H](C)CC` [Example 109, (Aib^2, Pro^3, A6c^7)hGIP(1-30)-NH2] are 47.8 h and 27.2 h.
With “YA[Tic]GTFISDY[Ac5c]IA[Ac6c]DKIHQQDFVNWLLAQKGKKNDWKHNITQ-OH [Example 89, (Tic^3, A5c^11, A6c^14)hGIP(1-42)-OH]”, the half-life at 0.1 mg/ml is 11.8 h in series [1] (rat plasma, 37° C., LC-MS) and above 48 h in series [2] (setting [3]).
